The values below come from the supplement of paper PMC3493320.

A word on the IC50: it is the concentration that inhibits the measured activity by half. High values mean lower potency, low ones higher potency.

The test deals with NCI-H295R. The test is described as follows: IC50 (antiproliferative, ATP content). The settings on record: 48 h. The procedure, abridged:
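Serum-free ITS-supplemented DMEM was used to seed 1500 adrenocortical carcinoma cells per well in 1536-well plates, which were cultured overnight. Eight final concentrations of each library compound, from 0.6 nM to 46 µM, were added by pin transfer, followed by 48 h at 37 °C in 5% CO2 and a CellTiter-Glo ATP read after 20 min at room temperature. Luminescence was set against vehicle and positive-control wells, and the IC50 was obtained by logistic curve fitting. Any compound with no concentration response was entered as above the top dose.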
Turning to `CCOC(=O)O[C@]1(C(=O)COC(=O)CC)CC[C@H]2[C@@H]3CCC4=CC(=O)C=C[C@]4(C)[C@H]3[C@@H](O)C[C@@]21C`, the IC50 was more than 46 µM.

As to `CN1C(=O)COc2c(C(=O)NC3CN4CCC3CC4)cc(Cl)cc21` (stereo not given), the IC50 was more than 46 µM.

The compound `CC(C)(Oc1ccc(C2CCCc3ccccc32)cc1)C(=O)O` (stereo not given) registered an IC50 of more than 46 µM.

On to `O=NN(CCCl)C(=O)NCCCl`, for which the half-maximal inhibitory concentration (IC50) is more than 46 µM.

For the compound `CC(C)C[C@H](CN)CC(=O)O`, the IC50 was more than 46 µM.

`CO[C@@]1(NC(=O)C(C(=O)[O-])c2ccc(O)cc2)C(=O)N2C(C(=O)[O-])=C(CSc3nnnn3C)CO[C@@H]21.[Na+].[Na+]` (stereo not given in full) showed an IC50 of more than 46 µM.

For `COC(=O)CC[C@H](N)C(=O)O`, the half-maximal inhibitory concentration (IC50) was more than 46 µM.

`Cc1c(Cl)c(=O)oc2cc(OP(=O)(OCCCl)OCCCl)ccc12` had an IC50 of more than 46 µM.

On to `NC(=O)N1c2ccccc2CC(=O)c2ccccc21`, for which the IC50 was more than 46 µM.

As for `CCN(CC)Cc1cc(Nc2ccnc3cc(Cl)ccc23)ccc1O.Cl.Cl.O.O`, the half-maximal inhibitory concentration (IC50) is more than 46 µM.

With `C[C@@H]1C[C@H]2[C@@H]3C[C@H](F)C4=CC(=O)C=C[C@]4(C)[C@@]3(Cl)[C@@H](O)C[C@]2(C)[C@H]1C(=O)COC(=O)C(C)(C)C`, the IC50 was more than 46 µM.

Compound `COc1ncnc(NS(=O)(=O)c2ccc(N)cc2)c1OC` showed a half-maximal inhibitory concentration (IC50) of more than 46 µM.

On to `CCCCCCCCCCCC(=O)[O][Sn]([CH2]CCC)([CH2]CCC)[O]C(=O)CCCCCCCCCCC`, for which the 50% inhibitory concentration (IC50) was more than 46 µM.

`CN1CCC(=C2c3ccccc3CCc3sccc32)CC1` yielded an IC50 of more than 46 µM.

Consider `O=C1C[C@@H]2OCC=C3CN4CC[C@]56c7ccccc7N1[C@H]5[C@H]2[C@H]3C[C@H]46`, for which the IC50 is more than 46 µM.

For `CC(C)NCC(O)c1ccc(NS(C)(=O)=O)cc1` (stereo not given), the half-inhibitory concentration (IC50) is more than 46 µM.

On to `Cl.Cl.NC(=O)C1(N2CCCCC2)CCN(CCCC(=O)c2ccc(F)cc2)CC1`, for which the IC50 is more than 46 µM.

`O=C(O)c1ccc(OCCCOc2ccc(C(=O)O)cc2)cc1` had a half-maximal inhibitory concentration (IC50) of more than 46 µM.

`O=C(c1ccccc1)c1ccc2n1CCC2C(=O)O` (stereo not given) came in with a 50% inhibitory concentration (IC50) of more than 46 µM.

Turning to `O=C(NCNC(=O)NC1C(=O)NC(=O)N1CO)NC1C(=O)NC(=O)N1CO` (stereo not given), the half-maximal inhibitory concentration (IC50) was more than 46 µM.

Regarding `CCN(Cc1ccc(Cl)nc1)/C(=C/[N+](=O)[O-])NC`, the half-inhibitory concentration (IC50) is more than 46 µM.

`CC(=O)CC(c1ccc([N+](=O)[O-])cc1)c1c(O)c2ccccc2oc1=O` (stereo not given): the IC50 is more than 46 µM.

With `CN1[C@@H](CC(=O)c2ccccc2)CCC[C@H]1C[C@H](O)c1ccccc1`, the half-maximal inhibitory concentration (IC50) is more than 46 µM.

`O=C1NC(=O)C(c2ccccc2)(c2ccccc2)N1` had an IC50 of more than 46 µM.

On to `N#CCCN.N#CCCN.O=C(O)/C=C/C(=O)O`, for which the concentration for half-maximal inhibition (IC50) is more than 46 µM.

Regarding `CCC[C@@H]1C[C@@H](C(=O)N[C@@H]([C@H]2O[C@H](SC)[C@H](O)[C@@H](O)[C@H]2O)[C@H](C)Cl)N(C)C1.Cl`, the IC50 is more than 46 µM.

`CC(C(=O)O)c1cccc(C(=O)c2ccccc2)c1` (stereo not given) gave a 50% inhibitory concentration (IC50) of more than 46 µM.

`CN(C)CCOC(c1ccc(Cl)cc1)c1ccccn1.O=C(O)/C=C\C(=O)O` (stereo not given) had an IC50 of more than 46 µM.

Compound `CN1C(=O)CC(=O)N(c2ccccc2)c2cc(Cl)ccc21` displayed an IC50 of more than 46 µM.

As to `O=C(O)c1ccc2[nH]cc(CCCCN3CC=C(c4ccccc4)CC3)c2c1`, the IC50 was more than 46 µM.

In the case of `CN1C(C(=O)Nc2ccccn2)=C(O)c2sccc2S1(=O)=O`, the IC50 is more than 46 µM.

As to `O=C1c2ccccc2C(=O)C1c1ccc(Cl)cc1`, the IC50 is more than 46 µM.

In turn, `Cc1nc(C)c(Cl)c(O)c1Cl` came in with an IC50 of more than 46 µM.

On to `CC(C)(C)NC[C@H](O)COc1ccccc1C1CCCC1.CC(C)(C)NC[C@H](O)COc1ccccc1C1CCCC1.O=S(=O)(O)O`, for which the half-maximal inhibitory concentration (IC50) was more than 46 µM.

In turn, `O=C(O)COc1ccccc1/C=N/NC(=O)c1ccncc1` yielded an IC50 of more than 46 µM.

As for `C/14=C(/C[C@H]([C@H]2[C@H]3[C@](CC[C@H]\12)([C@@](C#C)(O)CC3)C)C)CC(CC4)=O`, the IC50 was more than 46 µM.

The compound `NCCCC(O)(P(=O)([O-])O)P(=O)(O)O.O.O.O.[Na+]` came in with a half-inhibitory concentration (IC50) of more than 46 µM.

`Cc1c(NC(=O)c2cccnc2)c(=O)n(-c2ccccc2)n1C` had a 50% inhibitory concentration (IC50) of more than 46 µM.

The compound `[O]=[Bi][O][Bi]=[O]` displayed an IC50 of more than 46 µM.

In turn, `CC(C)NCC(O)COc1ccccc1-n1cccc1` (stereo not given) returned an IC50 of more than 46 µM.

In turn, `CCN(CC)CCOC(=O)C(O)(c1ccccc1)c1ccccc1` registered a 50% inhibitory concentration (IC50) of more than 46 µM.

In the case of `CN1C(C(=O)Nc2ccccn2)C(=O)c2sc(Cl)cc2S1(=O)=O` (stereo not given), the IC50 is more than 46 µM.

In turn, `CC(=O)c1ccc(S(=O)(=O)NC(=O)NC2CCCCC2)cc1` displayed an IC50 of more than 46 µM.

With `CN1CCN(c2cc3c(nn2)Oc2ccccc2N3C)CC1`, the IC50 was more than 46 µM.

The compound `CC1(C)S[C@@H]2[C@H](NC(=O)C(C(=O)[O-])c3ccccc3)C(=O)N2[C@H]1C(=O)[O-].[Na+].[Na+]` (stereo not given in full) returned an IC50 of more than 46 µM.

As for `CC(C)(Oc1ccc(Cl)cc1)C(=O)O`, the half-inhibitory concentration (IC50) is more than 46 µM.

For the compound `CCCc1ccc(C(=O)O)cc1`, the IC50 was more than 46 µM.

Compound `CCC1(CC)C(=O)NC(=O)NC1=O` displayed an IC50 of more than 46 µM.

As to `O=CC=O`, the IC50 is more than 46 µM.

Turning to `CC[N+](CC)(CC(=O)Nc1c(C)cccc1C)Cc1ccccc1.O=C([O-])c1ccccc1`, the IC50 was more than 46 µM.

`CC(COc1ccccc1)N(CCCl)Cc1ccccc1` (stereo not given): the IC50 was more than 46 µM.

The compound `CC(=O)NCCCCCC(=O)O` gave an IC50 of more than 46 µM.

`c13c(C(\C(=C/N1C2CC2)C(O)=O)=O)c(c(c(c3F)N4C[C@@H](N[C@@H](C4)C)C)F)N` showed an IC50 of more than 46 µM.

`O=P([O-])(O)C(Cl)(Cl)P(=O)([O-])O.[Na+].[Na+]` came in with an IC50 of more than 46 µM.

In turn, `NCCS(=O)(=O)O` yielded an IC50 of more than 46 µM.

Consider `Cc1ccc(C(C)C)cc2c(C)ccc1-2`, for which the half-maximal inhibitory concentration (IC50) was more than 46 µM.

The compound `O=C(O)c1cc(-c2ccc(F)cc2F)ccc1O` came in with an IC50 of more than 46 µM.

On to `C[C@]12C=CC(=O)C=C1CC[C@H]1[C@@H]3C[C@@H](O)[C@](O)(C(=O)CO)[C@@]3(C)C[C@H](O)[C@@]12F`, for which the concentration for half-maximal inhibition (IC50) is more than 46 µM.

On to `OC(c1ccccc1)(c1ccccc1)C1CCNCC1`, for which the IC50 was more than 46 µM.

On to `COCCOC(=O)C1=C(C)NC(C)=C(C(=O)OC(C)C)C1c1cccc([N+](=O)[O-])c1` (stereo not given), for which the IC50 was more than 46 µM.

In turn, `Cl.Cn1c(NCCN(CCO)CCCc2ccc([N+](=O)[O-])cc2)cc(=O)n(C)c1=O` came in with an IC50 of more than 46 µM.

In the case of `NCCNCCNCCN`, the half-maximal inhibitory concentration (IC50) is more than 46 µM.

Compound `Cl.FC(F)(F)c1cccc(C2=CCN(CCc3ccc4ccccc4c3)CC2)c1` returned an IC50 of more than 46 µM.

As for `Cc1c(C)c2c(c(C)c1O)CC[C@@](C)(CCC[C@H](C)CCC[C@H](C)CCCC(C)C)O2`, the IC50 was more than 46 µM.

Take `CN1CCC(=C2c3ccccc3C=Cc3ccccc32)CC1`: the IC50 was more than 46 µM.

`O=Cc1ccccc1C=O` returned an IC50 of more than 46 µM.

The compound `CCCCCCCCCCCCCC[n+]1ccc(C)cc1.[Cl-]` gave an IC50 of more than 46 µM.

Compound `CCOC(=O)c1ccccc1O` gave an IC50 of more than 46 µM.

As for `COc1cc2[nH]c(=O)[nH]c(=O)c2cc1OC`, the 50% inhibitory concentration (IC50) is more than 46 µM.

`Cc1cc(C(C)(C)C)cc(C)c1CC1=NCCN1.Cl` yielded an IC50 of more than 46 µM.
